Measured values published in patent US20230405011A1, “COMBINATION THERAPY FOR THE TREATMENT OF CANCER” (Novartis AG, priority 2013, published 2023).

Test: Phase Ib/II trial of Example 5: pharmacokinetics
Format: in vivo

CO[C@H]1C[C@@H]2CC[C@@H](C)[C@@](O)(O2)C(=O)C(=O)N2CCCC[C@H]2C(=O)O[C@H]([C@H](C)C[C@@H]2CC[C@@H](OCCO)[C@H](OC)C2)CC(=O)[C@H](C)/C=C(\C)[C@@H](O)[C@@H](OC)C(=O)[C@H](C)C[C@H](C)/C=C/C=C/C=C/1C [EVE, Everolimus, reference compound]
EVE exposure at steady state (in vivo): increased

CN(C)C(=O)c1cc2cnc(Nc3ccc(N4CCNCC4)cn3)nc2n1C1CCCC1 [Compound A1, 7-Cyclopentyl-2-(5-piperazin-1-yl-pyridin-2-ylamino)-7H-pyrrolo[2,3-d]pyrimidine-6-carboxylic acid dimethylamide]
effect of EVE on Compound A1 exposure (preliminary PK analysis): does not affect | absorption (steady state (C1D15), Compound A1+EVE+EXE): rapidly absorbed
